Assay [1] deals with native Aβ aggregates in human AD brain sections (Homo sapiens, UniProt P05067). The experiment in a line: Aβ in vitro binding assay (autoradiography). The conditions noted are these: human AD cortical tissue section, 3 nM (FIG. 8).
Procedure: Ten μm thick A30P transgenic mouse brain sections and human PD brain sections are generated with a cryostat (Leica CM3050) at −17° C. chamber temperature and −15° C. object temperature. Sections are transferred to Histobond+ microscope slides (Marienfeld Laboratory Glasware). After drying for 3 hours at room temperature the sections are stored at −20° C. The sections are incubated with the radioligand (0.3-30 nM) and the respective cold compound (at various concentrations) in 50 mM Tris buffer, pH 7.4 at room temperature for 30 min. After washing 3×10 min at 4° C. in 50 mM Tris buffer, pH 7.4 and 3 quick dips in H2O dist. at 4° C. the sections are dried at 4° C. for 3 h. The sections are placed in a FujiFilm Cassette, exposed to an Imaging Plate (BAS-IP TR 2025) for five days and afterwards scanned with a FujiFilm IP reader (BAS-5000) with a resolution of 25 μM per pixel.
This direct in vitro binding assay assesses the affinity of radiotracers for native Aβ aggregates in tissue sections by autoradiography.
For assay [2], the target named is T1, aSyn aggregates (LBs) in human PD brain tissue (Homo sapiens, UniProt P37840).
T1 construct: tissue Banner Sun Health Research Institute; host or cells: human PD brain (cortical) tissue sections
The experiment in a line: aSyn in vitro binding assay on human PD tissue sections. The conditions noted are these: higher magnification. As to the method:
Human PD brain tissue blocks were obtained from the Banner Sun Health Research Institute (Sun City, Ariz., USA). Pathological diagnosis of PD was made according to standard criteria based on neuropathological data.
(§1) Ten μm thick A30P transgenic mouse brain sections and human PD brain sections are generated with a cryostat (Leica CM3050) at −17° C. chamber temperature and −15° C. object temperature. Sections are transferred to Histobond+ microscope slides (Marienfeld Laboratory Glasware). After drying for 3 hours at room temperature the sections are stored at −20° C. The sections are incubated with the radioligand (0.3-30 nM) and the respective cold compound (at various concentrations) in 50 mM Tris buffer, pH 7.4 at room temperature for 30 min. After washing 3×10 min at 4° C. in 50 mM Tris buffer, pH 7.4 and 3 quick dips in H2O dist. at 4° C. the sections are dried at 4° C. for 3 h. The sections are placed in a FujiFilm Cassette, exposed to an Imaging Plate (BAS-IP TR 2025) for five days and afterwards scanned with a FujiFilm IP reader (BAS-5000) with a resolution of […] per pixel.
Antibody staining of sections is performed after exposure and scanning of the tissue sections undergoing classical autoradiographical analysis. Brain sections were hydrated in PBS and blocked in 1% bovine serum albumin, 1% ovalbumin and 1% normal goat serum in PSB for 20 min. […]

Assay [3] addresses T2, aSyn aggregates in A30P transgenic mouse brain tissue (Homo sapiens, UniProt P37840, A30P).
T2 construct: from tissue; host or cells: brain sections (midbrain and pons as ROI) of A30P transgenic mice, line B6.D2-Tg(Thy1-SNCA*30P)31Pjk
The experiment in a line: aSyn in vitro binding assay (autoradiography of tritiated compounds). Further details: species or system mutant human aSyn gene). Here is the method:
as §1
Antibody staining of sections is performed after exposure and scanning of the tissue sections undergoing classical autoradiographical analysis. Brain sections were hydrated in PBS and blocked in 1% bovine serum albumin, 1% ovalbumin and 1% normal goat serum in PSB for 20 min. This is followed by overnight incubation at 4° C. with a mixture of anti-aSyn pS129 monoclonal antibody (generated in-house; 1 μg/mL) in blocking buffer. […]

Assay [4] addresses T3, native aSyn aggregates in A30P transgenic mouse brain sections (Homo sapiens, UniProt P37840, A30P).
T3 construct: from tissue; host or cells: brain sections (midbrain and pons as ROI) of A30P transgenic mice, line B6.D2-Tg(Thy1-SNCA*30P)31Pjk
The experiment in a line: aSyn in vitro displacement assay ([3H]Example-3 autoradiography). It counts as binding, mutant human aSyn gene). To be noted: 1 μM compound; 3 nM [3H]Example-3; A30P transgenic mouse brain sections; read-out: PCT_INHIB A30P @ 1 μM (% displacement of [3H]Example-3).

Assay [5] deals with T4, native Aβ aggregates in human AD brain tissue sections (Homo sapiens, UniProt P05067).
T4 construct: native Aβ aggregates in human AD brain tissue samples; from tissue; host or cells: human AD brain tissue sections
T4 sequence (P05067 672-713 limits assumed): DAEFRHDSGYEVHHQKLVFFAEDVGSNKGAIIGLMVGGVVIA
The experiment in a line: Aβ in vitro displacement assay (selectivity counterscreen, [3H]Example 3 autoradiography). Format: binding. The conditions noted are these: 1 μM compound; 3 nM [3H]Example 3; human AD brain sections; read-out: sel. counterscreen PCT_INHIB AD @ 1 μM (% displacement of [3H]Example 3). A general note: The purpose of a counterscreen is to sort out artefacts and off-target activity.

Here are results for nine compounds from patent US11541132B2, “Radiolabeled compounds” (Hoffmann-La Roche Inc., priority 2017, dated 2023).

Structures are written as SMILES.

Sequence of native Aβ aggregates in human AD brain sections (P05067 672-713 limits assumed): as above

Regarding `[3H]C([3H])(F)Oc1ccc(C(=O)Nc2ccc(N3CCN(c4cccnc4)CC3)cc2)cc1` [[^3H]Example-134, [^3H]4-(Fluoromethoxy)-N-(4-(4-(pyridin-3-yl)piperazin-1-yl)phenyl)benzamide], the “co-localization of radioligand binding and Aβ mAb staining” value in assay [1] is given as “excellent co-localization”.
Take `[3H]C([3H])([3H])Oc1ccc(C(=O)Nc2ccc(N3CCN(c4ccccn4)CC3)cc2)cc1` [[^3H]Example-3, 4-[^3H3] Methoxy-N-[4-(4-pyridin-2-ylpiperazin-1-yl)phenyl]benzamide]: the “co-localization of autoradiogram hot spots with LBs stained by aSyn mAb pS129” value in assay [2] was “good co-localization”. Further, in assay [3] (A30P transgenic mouse brain sections), the “co-localization of radioligand binding and aSyn antibody pS129 staining” value is on record as “excellent co-localization”. In assay [3] (radioligand 3 nM (FIG. 1), midbrain and pons), the “binding to aSyn aggregates in A30P transgenic mouse brain tissue” value is reported as “strong binding”.
With `CN1CCN(c2ccc(C(=O)Nc3ccc(N4CCN(c5ccccn5)CC4)cc3)cc2)CC1` [Example 6, 4-(4-Methylpiperazin-1-yl)-N-(4-(4-(pyridin-2-yl)piperazin-1-yl)phenyl)benzamide], the inhibition at 1 µM in assay [4] turned out to be 83%; in assay [5] it was 95%.
In the case of `COc1ccc(C(=O)Nc2ccc(N3CCN(c4cc(Cl)ccn4)CC3)cc2)cc1` [Example 149, N-(4-(4-(4-Chloropyridin-2-yl)piperazin-1-yl)phenyl)-4-methoxybenzamide], the results for the inhibition at 1 µM in assay [4] and in assay [5] were 93% and 91%, respectively.
Taken in the same sequence, the figures for `COc1ccc(C(=O)Nc2ccc(N3CCN(c4ccc(C#N)cn4)CC3)cc2)c(F)c1` [Example 115, N-[4-[4-(5-Cyano-2-pyridyl)piperazin-1-yl]phenyl]-2-fluoro-4-methoxy-benzamide] were 87% and 90%.
Consider `CN(C)c1ccc(C(=O)Nc2ccc(N3CCN(c4ccccn4)CC3)nc2)cc1` [Example 31, 4-(Dimethylamino)-N-[6-[4-(2-pyridyl)piperazin-1-yl]-3-pyridyl]benzamide], for which the inhibition at 1 µM in assay [4] is 90%; in assay [5], 98%.
Taken in the same sequence, the figures for `COc1ccc(C(=O)Nc2ccc(N3CCN(c4cccc(C#N)c4)CC3)cc2)cc1` [Example 103, N-[4-[4-(3-Cyanophenyl)piperazin-1-yl]phenyl]-4-methoxy-benzamide] were 100% and 99%.
Taken in the same sequence, the figures for `COc1ccc(C(=O)Nc2ccc(N3CCN(c4cccs4)CC3)cc2)cc1` [Example 66, 4-Methoxy-N-{4-[4-(thiophen-2-yl)piperazin-1-yl]phenyl}benzamide] were 104% and 103%.
On to `COc1ccc(C(=O)Nc2ccc(N3CCN(c4ncc(C#N)cn4)CC3)cc2)cc1` [Example 143, N-(4-(4-(5-Cyanopyrimidin-2-yl)piperazin-1-yl)phenyl)-4-methoxybenzamide], for which the inhibition at 1 µM in assay [4] and in assay [5] was 91% in each case.
